Reference: patent publication US5118681A (priority 1989, dated 1992)
≈ marks a conversion by molar mass, not a printed value.

What was measured:
[1] = tested on: A.n; assay: Minimum Inhibitory Concentration Test, alternate (Table 4), A.n; type: cell-based, Aspergillus niger; settings: Aspergillus niger, TSB, 72 hours
Procedure: (§1) A 125 μl aliquot of 10,000 ppm test compound in acetone was added to 4.88 ml of TSB to provide a 250 ppm solution. From this solution, 100 μL was transferred to the first row of two microtiter plate columns. Both replicates and five additional compounds were all serially diluted 1:1 to a final concentration of 0.8 ppm in TSB.
(§2) Inoculation was accomplished by diluting a 24 hr Ps fl culture, four mls per 36 mls of phosphate buffer solution. A Dynatech autoinoculator was used to transfer 1.5 μl of this cell suspension to the microtiter plates. The plates were incubated at 30° C. for 3 days before the lowest concentration at which no growth occurs was recorded in the database. The SOK data and MIC test data on Ps.fl, Ps.ae, E.c, and S.a. bacteria and Candida albicans (C.alb), A.n and A.p fungi are listed in Table 4.

[2] = tested on: A.p; assay: Minimum Inhibitory Concentration Test, alternate (Table 4), A.p; type: cell-based; settings: Aureobasidium pullulans, TSB, 72 hours
Procedure: as §1, §2

[3] = tested on: Candida albicans (C.alb); assay: Minimum Inhibitory Concentration Test, alternate (Table 4), C.alb; type: cell-based; settings: Candida albicans, TSB, 72 hours
Procedure: as §1, §2

[4] = tested on: E.c; assay: Minimum Inhibitory Concentration Test, alternate (Table 4), E.c; type: cell-based, Escherichia coli; settings: Escherichia coli, TSB, 72 hours
Procedure: as §1, §2

[5] = tested on: Ps.ae; assay: Minimum Inhibitory Concentration Test, alternate (Table 4), Ps.ae; type: cell-based, Pseudomonas aerugenosa; settings: Pseudomonas, TSB, 72 hours
[6] = tested on: Pseudomonas fluorescens; assay: Minimum Inhibitory Concentration Test, alternate (Table 4), Ps.fl; type: cell-based; settings: Pseudomonas fluorescens, TSB, 72 hours, 30° C
Procedure: as §1, §2

[7] = tested on: S.a; assay: Minimum Inhibitory Concentration Test, alternate (Table 4), S.a; type: cell-based, Staphylococcus aureus; settings: Staphylococcus aureus, TSB, 72 hours
Procedure: as §1, §2

[8] = tested on: Pseudoperonospora cubensis; assay: whole plant or invertebrate; type: in vivo; settings: Pseudoperonospora cubensis, in Cucumis sativus, 168 h; read-out: % control CDM
[9] = tested on: Piricularia oryzae; assay: whole plant or invertebrate; type: in vivo; settings: Pyricularia oryzae, read-out: % control RB
[10] = tested on: Pellicularia filamentosa (f. sp. sasiki); assay: whole plant or invertebrate; type: in vivo; settings: 120 h; read-out: % control RSB
[11] = tested on: Phytophthora infestans; assay: whole plant or invertebrate; type: in vivo; settings: Phytophthora infestans, in Solanum lycopersicum, 96 h, read-out: % control TLB
[12] = tested on: Erysiphe graminis (f. sp. tritici); assay: whole plant or invertebrate; type: in vivo; settings: Blumeria graminis; read-out: % control WPM
[13] = tested on: Puccinia recondita (f. sp. tritici Races PKB and PLD); assay: whole plant or invertebrate; type: in vivo; settings: Puccinia recondita, 240 h; read-out: % control WLR

Structure (SMILES)	MIC [1] [µg/mL]	MIC [2] [µg/mL]	MIC [3] [µg/mL]	MIC [4] [µg/mL]	MIC [5] [µg/mL]	MIC [6] [µg/mL]	MIC [7] [µg/mL]	pest or weed control at 200 ppm [8] [%]	pest or weed control at 200 ppm [9] [%]	pest or weed control at 200 ppm [10] [%]	pest or weed control at 200 ppm [11] [%]	pest or weed control at 200 ppm [12] [%]	pest or weed control at 200 ppm [13] [%]	pest or weed control at 100 ppm [11] [%]	pest or weed control at 100 ppm [8] [%]	pest or weed control at 100 ppm [9] [%]	pest or weed control at 100 ppm [10] [%]	pest or weed control at 100 ppm [12] [%]	pest or weed control at 100 ppm [13] [%]
CCCCCCCCNC(=O)/C=C\SC(C(C)=O)C(=O)OCC (stereo not drawn) [Example 11, N-n-octyl-cis-3-[2-(ethoxy-3-oxobutanoyl)thio]acrylamide]	4 to 8 (≈ 11.6 to 23.3 µM)	< 4	< 4	> 500	> 500	250 to 500 (≈ 728 to 1460 µM)	> 500	85	0	0	0	50	50						
CCCCCCCCNC(=O)/C=C\SC(C(C)=O)C(=O)NCc1ccccc1 (stereo not drawn) [Example 12, N-n-octyl-cis-3-[2-(N-benzylacetoacetamideo)thio]acrylamide]	4 to 16 (≈ 9.89 to 39.5 µM)	8 (≈ 19.8 µM)	16 (≈ 39.5 µM)	> 500	> 500	125 to 500 (≈ 309 to 1240 µM)	> 500	100	75	25		75	75	100					
CCCCCCCCNC(=O)/C=C\SC(C(C)=O)C(=O)C1CC1 (stereo not drawn) [Example 29, N-n-octyl-cis-3-[2-(1-cyclopropyl-1,3-butanedionyl)thio]acrylamide]	8 to 31 (≈ 23.6 to 91.3 µM)	125 (≈ 368 µM)	31 (≈ 91.3 µM)	> 500	> 500	> 500	> 500	95	77	0	85	0	0						
CCCCCCCCNC(=O)/C=C\SC(C(C)=O)C(=O)Nc1ccccc1OC (stereo not drawn) [Example 30, N-n-octyl-cis-3-{2-[N-(2-methoxyphenyl)acetoacetamido]thio}acrylamide]	31 to 63 (≈ 73.7 to 150 µM)	250 (≈ 594 µM)	8 (≈ 19 µM)	> 500	500 (≈ 1190 µM)	> 500	> 500	100	90	0	80	0	0						
CCCCCCCCNC(=O)/C=C\SC(C(=O)Nc1cccc(Cl)c1Cl)C(=O)OCC (stereo not drawn) [Example 35, N-n-octyl-cis-3-{2-[ethyl-N-(2,3-dichlorophenyl)malonamido]thio}acrylamide]	8 to 16 (≈ 16.3 to 32.7 µM)	< 2	4 (≈ 8.17 µM)	> 250	> 250	500 (≈ 1020 µM)	> 250							95	99	0	0	0	50
CCCCCCCCNC(=O)/C=C\SC(C(=O)NC1CC1)C(=O)OCC (stereo not drawn) [Example 36, N-n-octyl-cis-3-[2-(ethyl-N-cyclopropylmalonamido)thio]acrylamide]	8 to 16 (≈ 20.8 to 41.6 µM)	< 2	31 (≈ 80.6 µM)	> 250	> 250	500 (≈ 1300 µM)	125 (≈ 325 µM)							47	100	90	0	0	50
C=CCNC(=O)C(S/C=C\C(=O)NCCCCCCCC)C(=O)OCC (stereo not drawn) [Example 37, N-n-octyl-cis-3-{2-[ethyl-N-(2-propenyl)malonamido]thio}acrylamide]	4 to 8 (≈ 10.4 to 20.8 µM)	< 2	8 (≈ 20.8 µM)	> 250	> 250	500 (≈ 1300 µM)	31 (≈ 80.6 µM)							95	100	95	0	50	75
